pIC50: −log10 of the molar value.
Tests used:
[1] = biological target: T1, Steroid 17-alpha-hydroxylase/17,20 lyase (Homo sapiens, UniProt P05093); assay: Inhibition of CYP17 in human testicular microsomes using 17alpha-hydroxypregnenolone as substrate assessed as decrease in DHEA levels after 90 mins by ELISA; set-up: species or system Testis
T1 sequence (P05093 whole entry): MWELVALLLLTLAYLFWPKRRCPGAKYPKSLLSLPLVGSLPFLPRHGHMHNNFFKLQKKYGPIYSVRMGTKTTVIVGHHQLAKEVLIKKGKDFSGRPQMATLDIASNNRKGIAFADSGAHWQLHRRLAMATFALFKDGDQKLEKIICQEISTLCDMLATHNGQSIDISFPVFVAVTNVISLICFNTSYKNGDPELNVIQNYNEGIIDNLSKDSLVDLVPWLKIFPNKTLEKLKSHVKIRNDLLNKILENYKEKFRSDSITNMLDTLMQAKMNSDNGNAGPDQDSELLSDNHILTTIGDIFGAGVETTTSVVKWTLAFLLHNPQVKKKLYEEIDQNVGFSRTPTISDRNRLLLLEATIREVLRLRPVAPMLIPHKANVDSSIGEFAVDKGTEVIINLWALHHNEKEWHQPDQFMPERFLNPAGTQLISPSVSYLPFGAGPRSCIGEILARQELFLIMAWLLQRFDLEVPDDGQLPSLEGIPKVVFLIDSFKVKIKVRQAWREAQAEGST

[2] = biological target: T2, CYP21 (steroid 21-hydroxylase) (Homo sapiens, UniProt P08686); assay: Inhibition of human CYP21 transfected in HEK293 cells assessed as decrease in conversion of progesterone to 11-deoxycorticosterone preincubated for 5 hrs followed by progesterone addition measured after 20 hrs by ELISA; assay type: cell-based; set-up: concentration or dose not given beside the values; conditions: HEK293 cells transfected with human CYP21, probe progesterone
T2 sequence (P08686 whole entry): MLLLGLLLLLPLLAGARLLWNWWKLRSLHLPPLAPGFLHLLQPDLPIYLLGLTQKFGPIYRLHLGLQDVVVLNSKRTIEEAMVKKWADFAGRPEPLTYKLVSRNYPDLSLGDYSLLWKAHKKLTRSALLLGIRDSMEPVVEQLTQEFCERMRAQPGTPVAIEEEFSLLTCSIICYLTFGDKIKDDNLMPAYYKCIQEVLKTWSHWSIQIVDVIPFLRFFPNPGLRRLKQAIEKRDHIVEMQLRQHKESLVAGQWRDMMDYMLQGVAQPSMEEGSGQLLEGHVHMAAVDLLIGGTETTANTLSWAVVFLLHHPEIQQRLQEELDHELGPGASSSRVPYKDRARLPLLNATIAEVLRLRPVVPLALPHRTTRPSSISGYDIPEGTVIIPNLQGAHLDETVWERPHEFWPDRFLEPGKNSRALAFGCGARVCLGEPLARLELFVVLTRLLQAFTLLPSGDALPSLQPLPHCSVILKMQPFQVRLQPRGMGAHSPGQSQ

[3] = biological target: T1, Steroid 17-alpha-hydroxylase/17,20 lyase; assay: Inhibition of CYP17 in human testicular microsomes using 17alpha-hydroxypregnenolone as substrate assessed as decrease in DHEA levels at 1 nM after 90 mins by ELISA relative to control; set-up: species or system Testis
[4] = Half life in human liver microsomes at 1 uM by LC-MS/MS analysis
[5] = biological target: T1, Steroid 17-alpha-hydroxylase/17,20 lyase; assay: Inhibition of CYP17 in human H295R cells assessed as decrease in testosterone levels after 24 hrs by ELISA; assay type: cell-based
CYP11B = biological target: T3, CYP11B (Rattus norvegicus, UniProt P15393+P30099); assay: Inhibition of Sprague-Dawley rat adrenal mitochondrial CYP11B assessed as decrease in conversion of 11-deoxycortisol to cortisol at 100 nM incubated for 60 mins by ELISA relative to control; assay type: protein assay; conditions: adrenal mitochondria, probe 11-deoxycortisol
T3 sequence (P30099 whole entry): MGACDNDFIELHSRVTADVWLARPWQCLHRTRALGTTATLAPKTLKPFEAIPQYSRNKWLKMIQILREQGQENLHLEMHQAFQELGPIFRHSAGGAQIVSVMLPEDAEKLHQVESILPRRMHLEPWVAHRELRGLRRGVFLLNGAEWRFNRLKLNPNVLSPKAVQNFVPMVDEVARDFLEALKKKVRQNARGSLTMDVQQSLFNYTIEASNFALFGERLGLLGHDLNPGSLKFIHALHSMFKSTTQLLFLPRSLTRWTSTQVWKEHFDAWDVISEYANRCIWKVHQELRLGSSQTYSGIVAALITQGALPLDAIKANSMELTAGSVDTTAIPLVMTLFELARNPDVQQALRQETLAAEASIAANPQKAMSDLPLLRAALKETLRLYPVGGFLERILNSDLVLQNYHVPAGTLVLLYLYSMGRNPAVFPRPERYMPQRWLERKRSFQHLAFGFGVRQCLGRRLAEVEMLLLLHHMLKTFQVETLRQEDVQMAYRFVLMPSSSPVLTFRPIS
T3 sequence (P15393 whole entry): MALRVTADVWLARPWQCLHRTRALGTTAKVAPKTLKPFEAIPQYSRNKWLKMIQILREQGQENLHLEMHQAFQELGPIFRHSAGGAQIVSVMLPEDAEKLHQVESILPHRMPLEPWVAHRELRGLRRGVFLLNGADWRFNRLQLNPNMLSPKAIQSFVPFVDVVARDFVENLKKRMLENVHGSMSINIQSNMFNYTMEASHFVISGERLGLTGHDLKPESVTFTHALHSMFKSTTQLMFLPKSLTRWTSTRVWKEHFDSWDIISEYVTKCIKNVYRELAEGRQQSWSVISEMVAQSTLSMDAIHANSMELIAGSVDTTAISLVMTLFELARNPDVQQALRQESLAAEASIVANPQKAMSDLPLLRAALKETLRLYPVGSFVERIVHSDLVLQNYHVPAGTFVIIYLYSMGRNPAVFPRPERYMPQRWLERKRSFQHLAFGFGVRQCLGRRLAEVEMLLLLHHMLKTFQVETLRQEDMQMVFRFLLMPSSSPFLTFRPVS

[6] = biological target: T1, Steroid 17-alpha-hydroxylase/17,20 lyase; assay: Inhibition of CYP17 in human testicular microsomes using 17alpha-hydroxypregnenolone as substrate assessed as decrease in DHEA levels at 10 nM after 90 mins by ELISA relative to control; set-up: species or system Testis; conditions: 1.5 h

C[C@]12CC[C@H]3[C@@H](C=CC4=CC(=O)CC[C@@]43C)C1=CC=C2c1cccnc1
pIC50 [1]: ≥ 7.96
inhibition at 20 h [2]: ≥ 50%
pIC50 [3]: 7.00 to 8.00
half-life at 1 µM [4]: 1 to 50 min

C[C@]12CCNC(=O)C=C1C1(CC1)C[C@@H]1[C@@H]2CC[C@]2(C)C(c3cccnc3)=CC[C@@H]12
pIC50 [1]: ≥ 7.96
inhibition at 20 h [2]: 10 to 50%
pIC50 [5]: ≥ 7.82
pIC50 [3]: ≥ 8.00
half-life at 1 µM [4]: 1 to 50 min

C[C@]12CC[C@H]3[C@@H](CC=C4C[C@H](NC(=O)C5CC5)CC[C@@]43C)C1=CC=C2n1ccnc1
inhibition at 1 h, 0.1 µM (CYP11B): ≥ 50%
inhibition at 20 h [2]: 10 to 50%

C[C@]12CC[C@H]3[C@@H](CCC4=CC(=O)NCC[C@@]43C)C1=CC=C2c1cncc(F)c1
inhibition at 20 h [2]: 10 to 50%
pIC50 [5]: ≥ 7.82
pIC50 [3]: < 7.00
half-life at 1 µM [4]: 1 to 50 min

C[C@]12CCC(=O)C=C1C1(CC1)C[C@@H]1[C@@H]2CC[C@]2(C)C(c3cccnc3)=CC[C@@H]12
pIC50 [1]: ≥ 7.96
inhibition at 20 h [2]: ≥ 50%
pIC50 [5]: ≥ 7.82
pIC50 [3]: ≥ 8.00
half-life at 1 µM [4]: 1 to 50 min

CC1C[C@H]2C3=CC=C(c4cncc(F)c4)[C@@]3(C)CC[C@@H]2[C@@]2(C)CCC(=O)C=C12 (stereo not given in full)
inhibition at 20 h [2]: 10 to 50%
pIC50 [5]: ≥ 7.82
pIC50 [3]: ≥ 8.00
half-life at 1 µM [4]: 1 to 50 min

C[C@]12CCNC(=O)C=C1C1CC1[C@@H]1[C@@H]2CC[C@]2(C)C(c3cccnc3)=CC[C@@H]12 (stereo not given in full)
pIC50 [1]: ≥ 7.96
inhibition at 20 h [2]: ≥ 50%
pIC50 [3]: < 7.00
half-life at 1 µM [4]: 1 to 50 min

C[C@]12CC[C@H]3[C@@H](CCC4=CC(=O)C=C[C@@]43C)C1=CC=C2c1cccnc1
pIC50 [1]: ≥ 7.96
inhibition at 20 h [2]: ≥ 50%
pIC50 [5]: ≥ 7.82
pIC50 [3]: 7.00 to 8.00
half-life at 1 µM [4]: 1 to 50 min

C=C1C[C@@H]2[C@H](CC[C@]3(C)C(c4cccnc4)=CC[C@@H]23)[C@@]2(C)CCC(=O)C=C12
pIC50 [1]: ≥ 7.96
inhibition at 20 h [2]: ≥ 50%
pIC50 [5]: ≥ 7.82
pIC50 [3]: 7.00 to 8.00
half-life at 1 µM [4]: 1 to 50 min

C[C@]12CC[C@H]3[C@@H](CCC4=CC(=O)CC[C@@]43C)C1=CC=C2c1cncc(F)c1
pIC50 [1]: ≥ 7.96
inhibition at 20 h [2]: ≥ 50%
pIC50 [5]: ≥ 7.82
pIC50 [3]: 7.00 to 8.00
half-life at 1 µM [4]: 1 to 50 min

CC1C[C@H]2C3=CC=C(c4cccnc4)[C@@]3(C)CC[C@@H]2[C@@]2(C)C=CC(=O)C=C12 (stereo not given in full)
inhibition at 20 h [2]: ≥ 50%
inhibition at 0.01 µM [6]: ≥ 80%
pIC50 [3]: ≥ 8.00
half-life at 1 µM [4]: 1 to 50 min

C[C@]12CC[C@H]3[C@@H](CCC4=CC(=O)CC[C@@]43C)C1=CC=C2c1cncnc1
pIC50 [1]: ≥ 7.96
inhibition at 20 h [2]: ≥ 50%
pIC50 [3]: 7.00 to 8.00
half-life at 1 µM [4]: 1 to 50 min

CCC1C[C@H]2C3=CC=C(c4cccnc4)[C@@]3(C)CC[C@@H]2[C@@]2(C)CCC(=O)C=C12 (stereo not given in full)
pIC50 [1]: ≥ 7.96
inhibition at 20 h [2]: 10 to 50%
pIC50 [3]: 7.00 to 8.00
half-life at 1 µM [4]: 1 to 50 min

CC1C[C@@H]2[C@H](CC[C@]3(C)C(c4cccnc4)=CC[C@@H]23)[C@@]2(C)CCC(=O)C=C12 (stereo not given in full)
pIC50 [1]: ≥ 7.96
inhibition at 20 h [2]: ≥ 50%
pIC50 [5]: ≥ 7.82
pIC50 [3]: 7.00 to 8.00
half-life at 1 µM [4]: 1 to 50 min

CC1C[C@@H]2[C@H](CC[C@]3(C)C(c4cccnc4)=CC[C@@H]23)[C@@]2(C)C=CC(=O)C=C12 (stereo not given in full)
inhibition at 20 h [2]: ≥ 50%
pIC50 [5]: ≥ 7.82
pIC50 [3]: ≥ 8.00
half-life at 1 µM [4]: 1 to 50 min

C=C1C[C@@H]2[C@H](CC[C@]3(C)C(c4cncc(F)c4)=CC[C@@H]23)[C@@]2(C)C=CC(=O)C=C12
pIC50 [1]: ≥ 7.96
pIC50 [5]: ≥ 7.82
pIC50 [3]: < 7.00
half-life at 1 µM [4]: 1 to 50 min

C[C@]12CCCN(S(C)(=O)=O)CC1CC[C@@H]1[C@@H]2CC[C@]2(C)C(n3ccnc3)=CC[C@@H]12 (stereo not given in full)
inhibition at 1 h, 0.1 µM (CYP11B): ≥ 50%

C[C@]12C=CC(=O)C=C1C1(CC1)C[C@@H]1[C@@H]2CC[C@]2(C)C(c3cccnc3)=CC[C@@H]12
pIC50 [1]: ≥ 7.96
inhibition at 20 h [2]: 10 to 50%
pIC50 [5]: ≥ 7.82
pIC50 [3]: ≥ 8.00
half-life at 1 µM [4]: 1 to 50 min

CC1C[C@@H]2[C@H](CC[C@]3(C)C(c4cncc(F)c4)=CC[C@@H]23)[C@@]2(C)CCC(=O)C=C12 (stereo not given in full)
pIC50 [1]: ≥ 7.96
inhibition at 20 h [2]: ≥ 50%
pIC50 [5]: ≥ 7.82
pIC50 [3]: < 7.00

CC1C[C@H]2C3=CC=C(c4cccnc4)[C@@]3(C)CC[C@@H]2[C@@]2(C)CCC(=O)C=C12 (stereo not given in full)
pIC50 [1]: ≥ 7.96
inhibition at 20 h [2]: ≥ 50%
pIC50 [3]: ≥ 8.00
half-life at 1 µM [4]: 1 to 50 min

CC1C[C@@H]2[C@H](CC[C@]3(C)C(c4cccnc4)CC[C@@H]23)[C@@]2(C)C=CC(=O)C=C12 (stereo not given in full)
pIC50 [1]: ≥ 6.95
pIC50 [3]: ≥ 8.00
half-life at 1 µM [4]: 1 to 50 min

C=C1CC2[C@H](CC[C@]3(C)C(c4cccnc4)=CC[C@@H]23)C2(C)C=CC(=O)C=C12 (single isomer, unassigned)
pIC50 [1]: ≥ 7.96
inhibition at 20 h [2]: ≥ 50%
pIC50 [5]: ≥ 7.82
pIC50 [3]: ≥ 8.00
half-life at 1 µM [4]: 1 to 50 min
